{"source": "patent US20220323405A1", "about": "“COMBINATION PRODUCT USING 3,4-METHYLENEDIOXYMETHAMPHETAMINE AND […] THE TREATMENT OF […] DISORDERS” (Universitätsspital Basel, priority 2021, published 2022)", "key": {"healthy subjects [1]": {"system": "healthy subjects", "conditions": "cited from earlier work"}, "rats": {"system": "rats", "conditions": "cited from earlier work"}, "healthy humans": {"system": "healthy humans", "experiment": "Modeled co-administration of carvedilol with MDMA at the same time (estimates from pre-administration data)", "design": "species or system human", "source_text": "FIGS. 11A-11C are graphs showing effects of MDMA alone, carvedilol alone, carvedilol prior to MDMA and carvedilol co-administered with MDMA at the same time (modeled data) on systolic (FIG. 11A), diastolic (FIG. 11B), and mean arterial blood pressure (FIG. 11C) in healthy humans; and\nFIGS. 12A-12B are graphs showing effects of MDMA alone, carvedilol alone, carvedilol prior to MDMA and carvedilol co-administered with MDMA at the same time (modeled data) on heart rate (FIG. 12A) and body temperature (FIG. 12B) in healthy humans.\nTherefore, the present invention further developed the carvedilol-pre-dosing approach into a simultaneous dosing approach. The study provided the information on the effects of carvedilol alone, and MDMA alone.\nFor blood pressure and heart rate the effects of carvedilol given simultaneously with MDMA were therefore estimated using the carvedilol and placebo mean values for each measured time point after administration and the mean carvedilol-placebo effect difference was calculated and then subtracted from the MDMA-placebo difference (FIGS. 11A-11C).\nFIGS. 11A-11C and 12A-12B illustrate the beneficial effect of the present invention using co-administration of the adverse effect-reducing agent (carvedilol) and the empathogen/entactogen (MDMA). If carvedilol is administered before MDMA (carvedilol prior MDMA condition) as in the past study (Hysek et al., 2012a), a drop in blood pressure and heart rate can be observed in FIGS. 11A-11C and 12A-12B prior to the MDMA administration and consistent with the effect of carvedilol alone.\nThe graphical illustrations (FIGS. 11A-11C and 12A-12B) are based on estimates and modeling using existing data from the pre-administration of carvedilol. However, it is clear from illustrations FIGS. 11A-11C and 12A-12B that the invention provides an effective approach to reduce MDMA-induced cardiostimulant effects."}, "humans [2]": {"system": "humans", "conditions": "carvedilol 50 mg; cited from earlier work"}, "healthy subjects [3]": {"system": "healthy subjects", "conditions": "doxazosin 8 mg/d for 3 days before MDMA 125 mg; cited from earlier work"}, "humans [4]": {"system": "humans", "conditions": "cited from earlier work"}, "healthy human subjects": {"system": "healthy human subjects", "conditions": "MDMA 125 mg vs placebo, cited from earlier work"}, "healthy subjects [5]": {"system": "healthy subjects", "conditions": "non-ambulating persons, 1.5-4 hours after administration vs placebo; p<0.001; cited from earlier work"}, "[6]": {"conditions": "carvedilol 50 mg 1 hour before MDMA 125 mg"}, "[7]": {"conditions": "carvedilol 50 mg 1 hour before MDMA 125 mg, listed as Carvedilol"}, "[8]": {"conditions": "humans, after MDMA vs after pindolol-MDMA"}}, "note": "Like-named read-outs stand apart in the source and are kept apart here.", "data": [{"smiles": "COc1ccccc1OCCNCC(O)COc1cccc2[nH]c3ccccc3c12", "note": "(stereo not shown) [carvedilol]", "values": [{"measurement": "Effect on MDMA-induced elevations in blood pressure", "setting": "healthy subjects [1]; [6]", "value": "effectively reduced"}, {"measurement": "Effect on MDMA-induced elevations in body temperature", "setting": "healthy subjects [1]; [6]", "value": "reduced"}, {"measurement": "Effect on MDMA-induced elevations in heart rate", "setting": "healthy subjects [1]; [6]", "value": "effectively reduced"}, {"measurement": "Effect on plasma exposure to MDMA", "setting": "healthy subjects [1]; [6]", "value": "did not alter"}, {"measurement": "Effect on subjective effects of MDMA (good drug effects, drug liking)", "setting": "healthy subjects [1]; [6]", "value": "did not alter"}, {"measurement": "Effect on MDMA-induced elevations in blood pressure", "setting": "healthy subjects [1]; [7]", "value": "reduced"}, {"measurement": "Effect on MDMA-induced elevations in heart rate", "setting": "healthy subjects [1]; [7]", "value": "reduced"}, {"measurement": "Effect on subjective effects of MDMA (good drug effects, drug liking)", "setting": "healthy subjects [1]; [7]", "value": "did not affect"}, {"measurement": "Blood pressure and heart rate prior to the MDMA administration", "setting": "healthy subjects [1]; carvedilol prior MDMA condition", "value": "drop"}, {"measurement": "Effect on established MDMA-induced hyperthermia", "setting": "rats; administered 1 hour after MDMA", "value": "completely reversed"}, {"measurement": "Effect on MDMA-induced hyperthermic (thermogenic) response", "setting": "rats; administered before or after MDMA", "value": "prevented"}, {"measurement": "Effect on MDMA-induced increase in body temperature (FIG. 12B)", "setting": "healthy humans; carvedilol administered prior to MDMA and with MDMA, modeled data", "value": "reduce"}, {"measurement": "Effect on MDMA-induced increase in heart rate and blood pressure", "setting": "healthy humans; carvedilol with MDMA at the same time, modeled data", "value": "reduce the MDMA effect effectively and similarly"}, {"measurement": "Effect on smoked cocaine-induced increases in heart rate and blood pressure", "setting": "humans [2]", "value": "attenuate"}]}, {"smiles": "COc1cc2nc(N3CCN(C(=O)C4COc5ccccc5O4)CC3)nc(N)c2cc1OC", "note": "(stereo not shown) [Doxazosin, doxazosin]", "values": [{"measurement": "Effect on MDMA-induced elevations in blood pressure", "setting": "healthy subjects [3]", "value": "reduced"}, {"measurement": "Effect on MDMA-induced elevations in body temperature", "setting": "healthy subjects [3]", "value": "reduced"}]}, {"smiles": "CNC(C)Cc1ccc2c(c1)OCO2", "note": "(stereo not shown) [MDMA, 3,4-methylenedioxymethamphetamine]", "values": [{"measurement": "Peak mean arterial blood pressure (MAP) values", "setting": "humans [4]; [8]", "value": "115±11", "unit": "mm Hg"}, {"measurement": "Peak values (mean±SD) for heart rate", "setting": "humans [4]; [8]", "value": "84±13", "unit": "beats/minute"}, {"measurement": "Norepinephrine levels", "setting": "rats", "value": "induced"}, {"measurement": "Body temperature (FIG. 12B)", "setting": "healthy humans; MDMA alone", "value": "slightly increases"}, {"measurement": "Diastolic and systolic blood pressure", "setting": "healthy human subjects", "value": "significantly increased"}, {"measurement": "Heart rate", "setting": "healthy human subjects", "value": "significantly increased"}, {"measurement": "Pupil size", "setting": "healthy human subjects", "value": "significantly increased"}, {"measurement": "Rate pressure product", "setting": "healthy human subjects", "value": "significantly increased"}, {"measurement": "Body temperature", "setting": "healthy human subjects; tympanic", "value": "significantly increased"}, {"measurement": "Body temperature", "setting": "healthy subjects [5]", "value": "elevated"}]}, {"smiles": "CC(C)NCC(O)COc1cccc2[nH]ccc12", "note": "(stereo not shown) [pindolol]", "values": [{"measurement": "Effect on MDMA-induced increase in body temperature", "setting": "humans [4]; pindolol pretreatment", "value": "no effect"}, {"measurement": "Effect on adverse effects of MDMA", "setting": "humans [4]; pindolol pretreatment", "value": "did not change"}]}]}
